Experimental data taken from patent US20250170149A1, “NEUROACTIVE STEROIDS FOR TREATMENT OF GASTROINTESTINAL DISEASES OR CONDITIONS” (Sage Therapeutics, Inc., priority 2022, published 2025).
“Also recorded” adds a separate entry of the source. Where two headings read alike, the source gives them in different places.

Legend:
[1] = tested on: patients with major depressive disorder (MDD); conditions: cited from earlier work; for rates of gastrointestinal adverse reactions compared to placebo, words: 15 most commonly used antidepressants in MDD, Oliva V, et al. 2021; for gastrointestinal tolerability among antidepressants, words: Oliva V. et al. 2021 meta-analysis in MDD
[2] = tested on: participants with major depressive disorder (MDD); assay: Treatment-emergent adverse events (TEAEs) and serious AEs in study NCT04476030, safety set; format: in vivo, human; conditions: one patient, about 1 hour after zuranolone 50 mg on Day 7; resolved within 22 minutes
Method: A randomized, double-blind, parallel-group, active/placebo-controlled study (NCT04476030) in participants with major depressive disorder (MDD) was conducted. The study evaluated the efficacy and safety of zuranolone 50 mg co-initiated with standard-of-care (SOC) antidepressant therapies (ADTs) (zuranolone+ADT) vs placebo co-initiated with SOC ADT (placebo+ADT) in adults with MDD. Patients were randomized 1:1 to once-daily, blinded zuranolone +ADT or placebo+ADT for 14 days then continued open-label SOC ADT for 28 more days.
An AE could therefore be any unfavorable and unintended sign (including an abnormal laboratory finding), symptom or disease temporally associated with the use of a medicinal (investigational) product whether or not related to the medicinal (investigational) product. In clinical studies, an AE could include an undesirable medical condition occurring at any time, including baseline or washout periods, even if no study treatment had been administered.
A treatment emergent adverse event (TEAE) was defined as an AE with onset after the start of investigational product (IP), or any worsening of a pre-existing medical condition/AE with onset after the start of IP and throughout the study. The term IP included any Sage IP, a comparator, or a placebo administered in a clinical study. […]

SMILES: CCOc1ccccc1OC(c1ccccc1)C1CNCCO1 (stereo not drawn) [reboxetine]
- rates of gastrointestinal adverse reactions compared to placebo, words [1]: higher rates of gastrointestinal adverse reactions

SMILES: COc1ccc(C(CN(C)C)C2(O)CCCCC2)cc1 (stereo not drawn) [venlafaxine]
- rates of gastrointestinal adverse reactions compared to placebo, words [1]: higher rates of gastrointestinal adverse reactions
- rates of nausea and vomiting, words ([1]; compared to SSRIs and duloxetine, Gartlehner G, et al. 2011): higher rates of nausea and vomiting

SMILES: CC(NC(C)(C)C)C(=O)c1cccc(Cl)c1 (stereo not drawn) [bupropion]
- rates of gastrointestinal adverse reactions compared to placebo, words [1]: higher rates of gastrointestinal adverse reactions

SMILES: CCN(CC)C(=O)[C@@]1(c2ccccc2)C[C@H]1CN [levomilnacipran]
- rates of gastrointestinal adverse reactions compared to placebo, words [1]: higher rates of gastrointestinal adverse reactions

SMILES: CN(C)CCC[C@@]1(c2ccc(F)cc2)OCc2cc(C#N)ccc21 [escitalopram]
- rates of gastrointestinal adverse reactions compared to placebo, words [1]: higher rates of gastrointestinal adverse reactions
- gastrointestinal tolerability among antidepressants, words [1]: least tolerated antidepressants on the gastrointestinal tract
- gastrointestinal tolerability among antidepressants, words ([1]; listed as Escitalopram): least tolerated antidepressants on the GI tract

SMILES: CN1CCN2c3ncccc3Cc3ccccc3C2C1 (stereo not drawn) [mirtazapine]
- rates of gastrointestinal adverse reactions compared to placebo, words [1]: higher rates of gastrointestinal adverse reactions

SMILES: CN(C)CC(c1ccc(O)cc1)C1(O)CCCCC1 (stereo not drawn) [desvenlafaxine]
- rates of gastrointestinal adverse reactions compared to placebo, words [1]: higher rates of gastrointestinal adverse reactions

SMILES: Cc1ccc(Sc2ccccc2N2CCNCC2)c(C)c1 [vortioxetine]
- rates of gastrointestinal adverse reactions compared to placebo, words [1]: higher rates of gastrointestinal adverse reactions

SMILES: COCCCC/C(=N\OCCN)c1ccc(C(F)(F)F)cc1 [fluvoxamine]
- rates of gastrointestinal adverse reactions compared to placebo, words [1]: higher rates of gastrointestinal adverse reactions

SMILES: C[C@@]1(O)CC[C@H]2[C@H](CC[C@@H]3[C@@H]2CC[C@]2(C)[C@@H](C(=O)Cn4cc(C#N)cn4)CC[C@@H]32)C1 [zuranolone]
- serious TEAE assessed as related to zuranolone by the investigator [2]: seizure-like phenomenon; also recorded: seizure-like phenomena

SMILES: CN(C)CCCC1(c2ccc(F)cc2)OCc2cc(C#N)ccc21 (stereo not drawn) [citalopram]
- rates of gastrointestinal adverse reactions compared to placebo, words [1]: higher rates of gastrointestinal adverse reactions

SMILES: CNCC[C@H](Oc1cccc2ccccc12)c1cccs1 [duloxetine]
- rates of gastrointestinal adverse reactions compared to placebo, words [1]: higher rates of gastrointestinal adverse reactions

SMILES: COc1ccc2cccc(CCNC(C)=O)c2c1 [agomelatine]
- rates of gastrointestinal adverse reactions compared to placebo, words [1]: higher rates of gastrointestinal adverse reactions

SMILES: CN[C@H]1CC[C@@H](c2ccc(Cl)c(Cl)c2)c2ccccc21 [sertraline]
- rates of gastrointestinal adverse reactions compared to placebo, words [1]: higher rates of gastrointestinal adverse reactions
- gastrointestinal tolerability among antidepressants, words [1]: least tolerated antidepressants on the gastrointestinal tract; also recorded: least tolerated antidepressants on the GI tract
- incidence of diarrhea, words ([1]; compared to other SSRIs and venlafaxine, Gartlehner G, et al. 2011): higher incidence of diarrhea

SMILES: CNCCC(Oc1ccc(C(F)(F)F)cc1)c1ccccc1 (stereo not drawn) [fluoxetine]
- rates of gastrointestinal adverse reactions compared to placebo, words [1]: higher rates of gastrointestinal adverse reactions

SMILES: Fc1ccc([C@@H]2CCNC[C@H]2COc2ccc3c(c2)OCO3)cc1 [paroxetine]
- rates of gastrointestinal adverse reactions compared to placebo, words [1]: higher rates of gastrointestinal adverse reactions
